Test results as given in the supplement of paper PMC10307832.

What was measured:
Assay in all cases: relative viability (nuclei count vs DMSO), 5 days (fraction); higher = more cells survive
kb NB 142-70 + OSI-027 = compound: C1CSC2=C(C(=O)N1)SC3=C2C=C(C=C3)O [kb NB 142-70] + COc1cccc2cc(-c3nc([C@H]4CC[C@H](C(=O)O)CC4)n4ncnc(N)c34)[nH]c12 [OSI-027] (partner 0.5 µM)
Summary of the method: (§1)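 Lung cancer cell lines in 1536-well plates got either a single drug or a fixed anchor-drug dose together with five library-drug doses (not always all listed) in √10 steps, by pin tool, on the day after seeding. Nuclei were counted after 5 days, and relative viability is the treated-to-vehicle ratio of nuclei counts. Values are medians of duplicate plates.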

[1] = compound: NCC(=O)Nc1ccc(-n2nc(C(F)(F)F)cc2-c2ccc3c(ccc4ccccc43)c2)cc1 + CC(=O)c1c(C)c2cnc(Nc3ccc(N4CCNCC4)cn3)nc2n(C2CCCC2)c1=O [Palbociclib] (partner 0.5 µM)
Summary of the method: as §1

[2] = compound: NCC(=O)Nc1ccc(-n2nc(C(F)(F)F)cc2-c2ccc3c(ccc4ccccc43)c2)cc1 + CC(C)C[C@H](NC(=O)[C@H](Cc1ccccc1)NC(=O)c1cnccn1)B(O)O [Bortezomib] (partner 0.002 µM)
Summary of the method: as §1

[3] = compound: NCC(=O)Nc1ccc(-n2nc(C(F)(F)F)cc2-c2ccc3c(ccc4ccccc43)c2)cc1 + CS(=O)(=O)CCNCc1ccc(-c2ccc3ncnc(Nc4ccc(OCc5cccc(F)c5)c(Cl)c4)c3c2)o1 [Lapatinib] (partner 2 µM)
Summary of the method: as §1

| Cell Line | relative viability (kb NB 142-70 + OSI-027; first compound 0.1 µM) | relative viability (kb NB 142-70 + OSI-027; first compound 1 µM) | relative viability (kb NB 142-70 + OSI-027; first compound 3.162 µM) | relative viability ([1]; first compound 0.02 µM) | relative viability ([1]; first compound 0.06325 µM) | relative viability ([1]; first compound 0.2 µM) | relative viability ([1]; first compound 0.6325 µM) | relative viability ([1]; first compound 2 µM) | relative viability ([2]; first compound 0.02 µM) | relative viability ([2]; first compound 0.06325 µM) | relative viability ([2]; first compound 0.2 µM) | relative viability ([2]; first compound 0.6325 µM) | relative viability ([2]; first compound 2 µM) | relative viability ([3]; first compound 0.02 µM) | relative viability ([3]; first compound 0.06325 µM) | relative viability ([3]; first compound 0.2 µM) | relative viability ([3]; first compound 0.6325 µM) | relative viability ([3]; first compound 2 µM) |
| --- | --- | --- | --- | --- | --- | --- | --- | --- | --- | --- | --- | --- | --- | --- | --- | --- | --- | --- |
| NCI-H2342 | 0.649 | 0.612 | 0.638 | 0.627 | 0.552 | 0.479 | 0.494 | 0.523 | – | – | – | – | – | – | – | – | – | – |
| HCC-15 | 0.698 | 0.703 | 0.516 | 0.714 | 0.732 | 0.763 | 0.742 | 0.749 | 1.07 | 1.06 | 1.06 | 1.01 | 0.996 | 0.847 | 0.876 | 0.839 | 0.821 | 0.812 |
| A-427 | 0.524 | 0.469 | 0.408 | 0.502 | 0.567 | 0.527 | 0.526 | 0.534 | 0.949 | 0.919 | 0.948 | 0.972 | 0.984 | 1.08 | 1.11 | 1.14 | 1.04 | 1.11 |
| SK-MES-1 | 0.653 | 0.676 | 0.27 | 0.34 | 0.294 | 0.329 | 0.325 | 0.387 | – | – | – | – | – | 0.485 | 0.403 | 0.546 | 0.455 | 0.46 |
| NCI-H1623 | 0.399 | 0.375 | 0.404 | – | – | – | – | – | – | – | – | – | – | – | – | – | – | – |
| Calu-6 | – | – | – | – | – | – | – | – | 0.998 | 1.2 | 1.06 | 0.972 | 1.04 | 0.969 | 1.12 | 1.19 | 1.16 | 0.963 |
| NCI-H2170 | 0.699 | 0.694 | 0.588 | 0.374 | 0.41 | 0.391 | 0.38 | 0.355 | – | – | – | – | – | 0.278 | 0.285 | 0.277 | 0.286 | 0.288 |
| NCI-H1299 | – | – | – | – | – | – | – | – | 0.992 | 1.03 | 1.1 | 0.972 | 1.04 | 0.987 | 0.943 | 1.02 | 0.952 | 0.972 |
| EBC-1 | – | – | – | – | – | – | – | – | 0.533 | 0.556 | 0.738 | 0.52 | 0.589 | 0.21 | 0.219 | 0.215 | 0.222 | 0.226 |
| NCI-H1648 | 0.253 | 0.217 | 0.237 | 0.283 | 0.267 | 0.268 | 0.281 | 0.264 | – | – | – | – | – | – | – | – | – | – |
| ChaGo-K-1 | 0.631 | 0.543 | 0.488 | 0.919 | 0.929 | 0.933 | 0.973 | 0.917 | 0.979 | 1.02 | 0.81 | 1.04 | 1.12 | – | – | – | – | – |
| LK-2 | 0.19 | 0.163 | 0.163 | 0.538 | 0.831 | 0.539 | 0.675 | 0.636 | – | – | – | – | – | 0.966 | 1.06 | 0.884 | 1 | 0.874 |
